Laboratory results taken from patent US11617777B2, “Cytotoxic and anti-mitotic compounds, and methods of using the same” (ZYMEWORKS BC INC., priority 2013, dated 2023).
Like-named read-outs stand apart in the source and are kept apart here.

Key:
[1] = test system: DU145; assay: Cytotoxicity on various cell lines; assay type: cell-based; conditions: Homo sapiens, DU-145, Table 8
Description: (§1) FIG. 1 summarizes the data for compounds A, B, C, D, and E when tested using the Human mammary carcinoma cell line HCC1954 or Human T-cell leukemia cell line Jurkat. FIGS. 2-6 show the cytotoxicity data plots for individual compounds A-E. Tables 2-6 summarize the results of additional cytotoxicity assays.
(§2) Cell lines used: Human T-cell leukemia cell line Jurkat (ATCC: TIB-152); HCC1954 (ATCC: CRL. 2338); Human Pancreatic cells lines: AsPC-1 (ATCC: CRL-1682), BxPC-3 (ATCC: CRL.1687), HPAF-II (ATCC: CRL.1997), MiaPaCa2 (ATCC: CRL.1420), PANC-1 (ATCC: CRL.1469), Capan-1 (ATCC: HTB-79), Capan-2 (ATCC: HTB-80) and the Human gastric carcinoma cell line NCI-N87 (ATCC: CRL. 5822); AML-193 (ATCC: CRL.9589), CCRF-CEM (ATCC: CCL-119), DU145 (ATCC: HTB-81), PC-3 (ATCC: CRL.1435), A-431 (ATCC: CRL.1555), HT-29 (ATCC: HTB-38), A-172 (ATCC: CRL.1620), NCI-H358 (ATCC: CRL.5807), A549 (ATCC: CCL-185), Colo-205 (ATCC: CCL-222), MDA-MB-231 (ATCC: HTB-26), OVCAR-3 (ATCC: HTB-161), OV-90 (ATCC: CRL.11732), OE19 (Sigma: 96071721), RT 112/84 (Sigma: 85061106).
(§3) On the day prior to adding compounds, HCC1954 AsPC-1, BxPC-3, HPAF-II, MiaPaCa2, PANC-1, Capan-1, Capan-2 and NCI-N87 cells were added to opaque-walled 96-well tissue culture-treated microtiter plates using complete growth medium at a density of 2500 cells/100 microlitre (uL) of medium. These adherant cell lines cells were incubated for one night at 37° C./5% CO2 to allow the cells to attach to the microtiter plate surface. On the day that compounds were added, Jurkat cells are added to separate 96-well microtiter plates at 2500 cells/100 uL using the same growth medium as HCC1954. Compound were first serially diluted using dimethyl sulfoxide, and then the prepared dilutions are added to complete growth medium at five-times the final concentration—compounds were then titrated 1:3, eight steps. A control with no compound (growth medium alone) was included on each microtiter plate in sextuplicate. The prepared compounds titrations were added (twenty-five uL/well) in triplicate. The cells and compound titrations were incubated at 37° C./5% CO2 for three nights. After the incubation, cell viability is measured using CellTiter-Glo® reagent by adding thirty uL of prepared CellTiter-Glo® to each assay well. The assay is incubated for at least twenty minutes in the dark prior to measuring emitted luminescence using a microplate luminometer (500 ms integration time). The collected relative luminescence units (RLU) are converted to % cytotoxicity using the Growth medium alone control mentioned above (% Cytotoxicity=1−[Well RLU/average medium alone control RLU]).
(§4) GraphPad Prism was used for generation of EC50 values using three parameter non-linear regression curve fitting.

[2] = test system: AML-193; assay: Cytotoxicity on various cell lines; assay type: cell-based; conditions: Table 8
Description: as §1, §2, §3, §4

[3] = test system: OVCAR-3; assay: Cytotoxicity on various cell lines; assay type: cell-based; conditions: Homo sapiens, Table 8
Description: as §1, §2, §3, §4

[4] = test system: RT112/84; assay: Cytotoxicity on various cell lines; assay type: cell-based; conditions: Homo sapiens, Table 8
Description: as §1, §2, §3, §4

[5] = test system: CCRF-CEM; assay: Cytotoxicity on various cell lines; assay type: cell-based; conditions: Homo sapiens, Table 8
Description: as §1, §2, §3, §4

[6] = test system: A-172; assay: Cytotoxicity on various cell lines; assay type: cell-based; conditions: Homo sapiens, Table 8
Description: as §1, §2, §3, §4

[7] = test system: OV-90; assay: Cytotoxicity on various cell lines; assay type: cell-based; conditions: Homo sapiens, Table 8
Description: as §1, §2, §3, §4

[8] = test system: OE19; assay: Cytotoxicity on various cell lines; assay type: cell-based; conditions: Homo sapiens, Table 8
Description: as §1, §2, §3, §4

[9] = test system: NCI-H358; assay: Cytotoxicity on various cell lines; assay type: cell-based; conditions: Homo sapiens, Table 8
Description: as §1, §2, §3, §4

[10] = test system: A-431; assay: Cytotoxicity on various cell lines; assay type: cell-based; conditions: Homo sapiens, Table 8
Description: as §1, §2, §3, §4

[11] = test system: Colo-205; assay: Cytotoxicity on various cell lines; assay type: cell-based; conditions: Homo sapiens, Table 8
Description: as §1, §2, §3, §4

[12] = test system: PC-3; assay: Cytotoxicity on various cell lines; assay type: cell-based; conditions: Homo sapiens, Table 8
Description: as §1, §2, §3, §4

[13] = test system: HT-29; assay: Cytotoxicity on various cell lines; assay type: cell-based; conditions: Homo sapiens, Table 8
Description: as §1, §2, §3, §4

[14] = test system: MDA-MB-231; assay: Cytotoxicity on various cell lines; assay type: cell-based; conditions: Homo sapiens, Table 8
Description: as §1, §2, §3, §4

[15] = test system: HCC1954 cells; assay: Cytotoxicity of compounds, CellTiter-Glo; assay type: cell-based; conditions: Homo sapiens, HCC1954
Description: as §2, §3, §4

[16] = test system: MiaPaCa2; assay: Cytotoxicity of compounds, CellTiter-Glo; assay type: cell-based; conditions: Homo sapiens
Description: as §1, §2, §3, §4

[17] = test system: PANC-1; assay: Cytotoxicity of compounds, CellTiter-Glo; assay type: cell-based; conditions: Homo sapiens
Description: as §1, §2, §3, §4

[18] = test system: HPAF-II; assay: Cytotoxicity of compounds, CellTiter-Glo; assay type: cell-based; conditions: Homo sapiens
Description: as §1, §2, §3, §4

[19] = test system: Capan-1; assay: Cytotoxicity of compounds, CellTiter-Glo; assay type: cell-based; conditions: Homo sapiens, Table 5
Description: as §1, §2, §3, §4

[20] = test system: BxPC-3; assay: Cytotoxicity of compounds, CellTiter-Glo; assay type: cell-based; conditions: Homo sapiens
Description: as §1, §2, §3, §4

[21] = test system: Capan-2; assay: Cytotoxicity of compounds, CellTiter-Glo; assay type: cell-based; conditions: Homo sapiens, Table 5
Description: as §1, §2, §3, §4

[22] = test system: AsPC-1; assay: Cytotoxicity of compounds, CellTiter-Glo; assay type: cell-based; conditions: Homo sapiens
Description: as §1, §2, §3, §4

[23] = test system: NCI-N87; assay: Cytotoxicity of compounds, CellTiter-Glo; assay type: cell-based; conditions: Homo sapiens
Description: as §1, §2, §3, §4

[24] = test system: Jurkat cells; assay: Cytotoxicity of compounds, CellTiter-Glo; assay type: cell-based, Human; conditions: Homo sapiens, Jurkat
Procedure, shortened: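 HCC1954 plated at 2500 cells/100 uL and attached overnight; Jurkat plated at 2500 cells/100 uL on the day of dosing. Cells exposed to 8-step 1:3 compound titrations for three nights at 37° C./5% CO2, in triplicate. CellTiter-Glo luminescence converted to % cytotoxicity versus medium-only control; EC50 by three-parameter nonlinear regression.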

[25] = test system: HCC1954 cells; assay: Cytotoxicity assay of SMCC- and LC-SPDP-linked ADCs and free compounds; assay type: cell-based; conditions: Homo sapiens, HCC1954, Table 9, Coupling #1, read-out: HCC1954 Best-fit EC50
Experimental: (§5) The purified ADCs were then analysed for: total protein content (BCA assay, Pierce microBCA protocol), relative affinity for antigen binding (equilibrium native binding), and selective cytotoxic killing of HER2-positive cells (HCC1954) compared HER2-negative cells (Jurkat).
(§6) On the day prior to adding test articles, HCC1954 cells were added to opaque-walled 96-well tissue culture-treated microtiter plates using complete growth medium at a density of 2500 cells/100 microlitre (uL) of medium. The HCC1954 cells were incubated for one night at 37° C./5% CO2 to allow the cells to attach to the microtiter plate surface. On the day that test articles were added, Jurkat cells are added to separate 96-well microtiter plates at 2500 cells/100 uL using the same growth medium as HCC1954. To compare the ADC killing to that obtained from the free-compounds, the n-acyl sulfonamide compounds were first serially diluted using dimethyl sulfoxide or DMA, and then the prepared dilutions are added to complete growth medium at five-times the final concentration—compounds were then titrated 1:3, eight steps. To test the ADCs, they were diluted directly in growth medium at five-times the final concentration—ADCs were then titrated 1:3, eight steps. A control with no test article present (growth medium alone) was included on each microtiter plate in sextuplicate. The prepared compound/ADC titrations were added (twenty-five uL/well) in triplicate to both the HCC1954 cells and Jurkat cells. The cells and titrations were incubated at 37° C./5% CO2 for three nights. After the incubation, cell viability was measured using CellTiter-Glo® reagent by adding thirty uL of prepared CellTiter-Glo® to each assay well. The assay was incubated for at least twenty minutes in the dark prior to measuring emitted luminescence using a microplate luminometer (500 ms integration time). The collected relative luminescence units (RLU) were converted to % cytotoxicity using the Growth medium alone control mentioned above (% Cytotoxicity=1−[Well RLU/average medium alone control RLU]).

[26] = test system: Jurkat cells; assay: as above; assay type: cell-based; conditions: Homo sapiens
Experimental: as §5, §6

CN[C@H](C(=O)N[C@H](C(=O)N(C)[C@H](/C=C(\C)C(=O)NS(=O)(=O)Cc1ccccc1)C(C)C)C(C)(C)C)C(C)(C)c1ccccc1 [Compound 14, (S,E)-N-(benzylsulfonyl)-2,5-dimethyl-4-((S)—N,3,3-trimethyl-2-((S)-3-methyl-2-(methylamino)-3-phenylbutanamido)butanamido)hex-2-enamide]
EC50 [1]: 0.649 nM
EC50 [2]: 0.191 nM
EC50 [3]: 0.09 nM
EC50 [4]: 0.178 nM
EC50 [5]: 0.13 nM
EC50 [6]: 0.598 nM
EC50 [7]: 0.515 nM
EC50 [8]: 0.21 nM
EC50 [9]: 0.311 nM
EC50 [10]: 0.191 nM
EC50 [11]: ~0.317 nM
EC50 [12]: 0.455 nM
EC50 [13]: 0.167 nM
EC50 [14]: 1.24 nM
EC50 ([15]; Table 8, HCC-1954, read-out: (EC50)): 0.131 nM
EC50 ([16]; MIA PaCa-2, Table 5, MinPaCa2, read-out: Cytotoxicity (EC50) MinPaCa2): 0.204 nM
EC50 ([16]; Table 8, Mia PaCa-2, read-out: (EC50)): 0.332 nM
EC50 ([17]; Table 5, read-out: Cytotoxicity (EC50) PANC-1): 1.36 nM
EC50 ([17]; Table 8, read-out: (EC50)): 0.759 nM
EC50 ([18]; Table 5, read-out: Cytotoxicity (EC50) HPAF-II): 0.172 nM
EC50 ([18]; Table 8, read-out: (EC50)): ~0.385 nM
EC50 [19]: 2.08 nM
EC50 ([20]; Table 5, read-out: Cytotoxicity (EC50) BxPC-3): 0.0458 nM
EC50 ([20]; Table 8, read-out: (EC50)): 0.196 nM
EC50 [21]: 1.1 nM
EC50 ([22]; ASPC1, Table 5, read-out: Cytotoxicity (EC50) AsPC-1): 0.206 nM
EC50 ([22]; ASPC1, Table 8, read-out: (EC50)): 0.334 nM
EC50 ([23]; Table 5, read-out: Cytotoxicity (EC50) NCI-N87): 0.175 nM
EC50 ([23]; Table 8, read-out: (EC50)): 0.325 nM

CN[C@H](C(=O)N[C@H](C(=O)N(C)[C@H](/C=C(\C)C(=O)NS(=O)(=O)CCCS)C(C)C)C(C)(C)C)C(C)(C)c1ccccc1 [Compound A, (S,E)-N-(3-mercaptopropylsulfonyl)-2,5-dimethyl-4-((S)—N,3,3-trimethyl-2-((S)-3-methyl-2-(methylamino)-3-phenylbutanamido)butanamido)hex-2-enamide]
EC50 ([24]; Table 1, Jurkat cells (HER2−), three nights, read-out: Jurkat cells (HER2−) EC50): 0.78 nM
EC50 ([24]; Table 2, read-out: Jurkat EC50): 5 nM
EC50 ([24]; Table 3, Cytotoxicity of Compounds on Jurkat Cells, read-out: EC50): 4.5 nM
EC50 [25]: 2.1 nM
EC50 ([26]; Table 9, Coupling #1, read-out: Jurkat Best-fit EC50): 1.1 nM
EC50 ([26]; Table 10, Coupling #2, read-out: Jurkat Best-fit EC50): 0.78 nM
EC50 ([15]; Table 4, Cytotoxicity of Compounds on HCC-1954 Cells, read-out: EC50): 2.1 nM
EC50 ([15]; Table 2, read-out: HCC1954 EC50): 3 nM
